What all share (assay type): cell-based, human
The nature of data set [1]: MTT cell viability assay, Caco-2. As to conditions: human, Caco-2, Caco-2 versus NHDF, 72 h; read-out: SI Caco-2 (selectivity index, cancer versus NHDF). The method, then:
(§1) Caco-2, MCF-7, PC-3, and NHDF cell lines were obtained from the American Type Culture Collection (ATCC) and maintained in 75 cm^2 culture flasks in a humidified atmosphere at 37 °C with 5% carbon dioxide using a LEEC Culture Safe Precision CO2 Incubator. The culture media was renewed every two to three days. The NHDF cell line was cultured in Roswell Park Memorial Institute (RPMI) medium supplemented with 10% of inactivated fetal bovine serum (FBS), 2 mM of L-glutamine, 10 mM of 4-(2-hydroxyethyl)-1-piperazineethanesulfonic acid (HEPES), 1 mM of sodium pyruvate, and 1% of antibiotic/antimycotic mixture (Ab; 10,000 U/mL of penicillin G, […] of streptomycin, and 25 µg/mL of amphotericin B). The PC-3 cell line was also cultured in RPMI 1640 medium supplemented with 10% inactivated FBS and 1% of an antibiotic mixture (Sp; 10,000 U/mL of penicillin G and […] of streptomycin). The Caco-2 and MCF-7 cell lines were grown in Dulbecco’s Modified Eagle Medium (DMEM). Caco-2 was supplemented with 20% of inactivated FBS and 1% of Sp. On the other hand, the MCF-7 medium was complemented with 10% of inactivated FBS and 1% of Ab. All manipulations were performed in a Labculture Class II A2 Biological Safety Cabinet.
(§2) After the near confluency of cultures, cells were detached with a solution of 0.125 g/L trypsin and 0.02 g/L ethylenediaminetetracetic acid (EDTA), counted using the trypan blue method, resuspended, and seeded in 96-well culture plates (100 µL, 2 × 10^4 cells/mL). Following 48 h of adherence, cells were treated with the test solutions and incubated for 72 h. This incubation, as well as the solution manipulations, were performed in an environment protected from light. After the incubation, the medium was replaced with a fresh incomplete culture medium (without FBS and Ab or Sp) and MTT solution (5 mg/mL in phosphate buffer saline (PBS)). After additional incubation for 4 h, the MTT medium was removed, formazan crystals were dissolved in DMSO, and the optical density of each well was measured at 570 nm using a microplate spectrophotometer Bio-Rad xMark. Untreated cells were used as a negative control and 5-FU as the positive control. The results were expressed as the relative cell proliferation relative to the negative control cells. […] To determine the IC50 values, Caco-2, MCF-7, PC-3, and NHDF cells were exposed to increasing concentrations between 0.001 and 100 μM.

For data set [2], the system named is Caco-2 colorectal adenocarcinoma cell line. Briefly: MTT cell viability assay, Caco-2. As to conditions: Homo sapiens, Caco-2, 72 h. How it is done:
as §1, §2
(In general: Formazan colour is commonly taken as a measure of viable cells.)

The subject of data set [3] is PC-3 prostate adenocarcinoma cell line. Briefly: MTT cell viability assay, PC-3. How it is done: as §1, §2
For data set [4], the system named is Caco-2 cells. Briefly: Morphological analysis by inverted microscopy. As to conditions: 72 h, 20 or 40× magnification, versus untreated cells. The method, then:
After the near confluency of the culture, trypsinisation, and counting, Caco-2 cells were seeded (3 mL; 3 × 10^4 cells/mL) in 35 mm cell culture dishes with treatment for the tissue culture. Following 48 h of adherence, the cells were treated with the test solutions and incubated for 72 h in an environment protected from light. At every 24 h, cellular morphology was verified in an Olympus CKX41 SF inverted microscope with a 10, 20, or 40× objective, and the analysis was based on comparing the cells with and without treatment. Cell imaging was captured using a DC6V Olympus digital camera coupled to the microscope.

In data set [5] the test system is Caco-2 cells. The data set is described as follows: Cell cycle distribution by propidium iodide staining and flow cytometry. As to conditions: dye 12 and 5-FU 10 µM 72 h, sorbitol 600 mM 24 h, versus untreated cells. The method, then: The apoptosis occurrence and influence of the dye 12 on the cell cycle were evaluated using propidium iodide (PI) staining and flow cytometry, as described by Riccardi and Nicolleti. After the near confluency of the culture, trypsinisation, and counting, Caco-2 cells were seeded (2 mL, 3 × 10^4 cells/mL) in 6-well plates. After 48 h of adherence, the cells were treated with the test solutions (3 mL and 5 mL for negative control) and incubated for 72 h. Untreated cells were used as the negative control, and sorbitol and 5-FU [56] were used as positive controls for the apoptosis and cell cycle distribution studies, respectively. After incubation, the supernatant was collected and the cells were washed with PBS and combined with the cells harvested using the trypsin treatment. This cell suspension was maintained on ice and centrifugated, and then the pellet was resuspended in 0.5 mL of PBS. The cells were fixed by adding 4.5 mL of 70% ethanol cooled at −20 °C and were stored at the same temperature. For the cytometry analysis, PBS was added to the fixed cells before centrifugation, and then the ethanolic supernatant was removed. The pellet was resuspended in 0.5 mL of PBS and 0.5 mL of DNA extraction (192 mL of 0.2 M sodium phosphate and 8 mL of […], pH 7.8) was added. After incubation for 5 min, the cells were centrifuged, the supernatant was removed, and the pellet resuspended in 0.3 mL of staining solution (20 µg/mL of PI and 0.2 mg/mL of DNase-free RNase in PBS). Using a FACSCalibur flow cytometer and the 488 nm laser line, a minimum of 20,000 events were recorded. Acquisition and apoptosis analysis was performed using BD CellQuestTM Pro 4.0.2 Software. Cell cycle analysis was performed with ModFit LT 5.0.9 software. To exclude debris and necrotic cells, events with a lower diameter (forward scatter; FCS) and reduced PI fluorescence (FL3) than the hypodiploid apoptotic cells were eliminated. Two independent experiments were performed.
Background: A flow cytometer gives signals particle by particle.

The results in this text go back to article PMC9503608, “An Insight into Symmetrical Cyanine Dyes as Promising Selective Antiproliferative Agents in Caco-2 Colorectal Cancer Cells” (Molecules, 2022).

Usually IC50 stands for the concentration at which inhibition is half-maximal. Low values mean greater potency, high ones weaker potency. By viability is commonly meant the share of living cells, or the viability signal relative to a control.

SMILES strings stand for the structures.

Regarding `CN1C(=Cc2oc3ccccc3[n+]2C)Oc2ccccc21.Cc1ccc(S(=O)(=O)[O-])cc1` [Dye 12, 3-Methyl-2-((3-methylbenzo[d]oxazol-2(3H)-ylidene)methyl)benzo[d]oxazol-3-ium 4-methylbenzenesulfonate], the selectivity ratio at 72 h in data set [1] worked out at 20.9. Further, the concentration for half-maximal inhibition (IC50) came to 670 nM in data set [2] (72 h of incubation, MTT, protected from light) and 4.53 µM in data set [3] (Homo sapiens, 72 h of incubation, MTT, protected from light). The viability at 10 µM came out at 10 ± 0.93% in data set [2] (single concentration of 10 µM, 72 h, mean ± SD, read-out: cell viability percentage in relation with control, Caco-2) and 9.33 ± 4.28% in data set [3] (Homo sapiens, 72 h, single concentration of 10 µM, 72 h, mean ± SD, read-out: cell viability percentage in relation with control, PC-3). Also, the “SI PC-3 (selectivity index, cancer versus NHDF)” value in data set [3] (PC-3 versus NHDF, 72 h) stood at 3.1. Also, the “morphological changes of Caco-2 cells” value is listed as “no visible differences” in data set [4] (1 µM) and “evident contraction” in data set [4] (10 µM). Further, the “effect on cell cycle distribution” value in data set [5] is on record as “notorious increase in the number of cells in the G0/G1 phase”.
